# Activity calls are given as the source filed them. The calls are words filed in the database; no cut-off is given here.
# How the values were obtained:
# [1] = Cytotoxicity against human HCT116 cells after 72 hrs by cell counting Kit-8 assay; type: functional, cell-based; details: HCT-116, 72 h
# [2] = system: HCT-116; experiment: Induction of DNA damage in human HCT116 cells at G2/M phase at 15 to 30 uM after 24 hrs by gamma-H2AX-staining based-flow cytometry; type: functional
# [3] = system: HCT-116; experiment: Induction of DNA damage in human HCT116 cells at S phase at 15 to 30 uM after 24 hrs by gamma-H2AX-staining based-flow cytometry; type: functional
# [4] = Cell cycle arrest in human HCT116 cells assessed as increase in accumulation at S phase at 15 to 30 uM after 24 by flow cytometry; type: functional, cell-based; details: HCT-116
# [5] = Cell cycle arrest in human HCT116 cells assessed as cells at M phase at 15 to 30 uM after 24 by flow cytometry; type: functional, cell-based; details: HCT-116
# [6] = system: HCT-116; experiment: Induction of apoptosis in human HCT116 cells assessed as early-stage apoptotic cells at 15 uM after 24 to 48 hrs by Annexin V/PI-FITC staining based flow cytometry; type: functional
# [7] = Cell cycle arrest in human HCT116 cells assessed as increase in accumulation at G2/M phase at 15 to 30 uM after 24 by flow cytometry; type: functional, cell-based; details: HCT-116
# [8] = Cell cycle arrest in human HCT116 cells assessed as increase in accumulation at G2/M phase at 100 to 200 uM after 24 by flow cytometry; type: functional, cell-based; details: HCT-116
# [9] = Cell cycle arrest in human HCT116 cells assessed as decrease in accumulation at S phase at 100 to 200 uM after 24 by flow cytometry; type: functional, cell-based; details: HCT-116
# [10] = system: HCT-116; experiment: Induction of DNA damage in human HCT116 cells at S phase at 100 to 200 uM after 24 hrs by gamma-H2AX-staining based-flow cytometry; type: functional
# [11] = Cell cycle arrest in human HCT116 cells assessed as cells at M phase at 100 to 200 nM after 24 by flow cytometry; details: HCT-116
# [12] = system: HCT-116; experiment: Induction of DNA damage in human HCT116 cells at G0/G1 phase at 100 to 200 nM after 24 hrs by gamma-H2AX-staining based-flow cytometry
# [13] = system: HCT-116; experiment: Induction of DNA damage in human HCT116 cells at G2/M phase at 100 to 200 uM after 24 hrs by gamma-H2AX-staining based-flow cytometry; type: functional
# [14] = Cell cycle arrest in human HCT116 cells assessed as increase in accumulation at G2/M phase at 20 uM after 24 by flow cytometry; type: functional, cell-based; details: HCT-116
# [15] = Cell cycle arrest in human HCT116 cells assessed as increase in accumulation at S phase at 20 uM after 24 by flow cytometry; type: functional, cell-based; details: HCT-116
# [16] = system: HCT-116; experiment: Induction of apoptosis in human HCT116 cells assessed as increase in mitosis at 20 uM after 24 by flow cytometry; type: functional
smiles,measurement,setting,value
COC1=CC(=O)c2c(O)c3c(c(O)c2C1=O)C[C@@](C)(O)C[C@@H]3O,IC50,[1],23.7 µM
COC1=CC(=O)c2c(O)c3c(c(O)c2C1=O)C[C@](C)(O)C[C@@H]3O,Activity,[2],50%
same,Activity,[3],90%
same,Activity,[4],Active
same,Activity,[5],inactive
same,Activity,[6],75%
same,IC50,[1],3.7 µM
same,Activity,[7],Active
COC1=CC(=O)c2c(O)c3c(c(O)c2C1=O)C[C@](C)(O)CC3,IC50,[1],26.8 µM
C[C@]1(O)Cc2c(O)c3c(c(O)c2[C@@H](O)C1)C(=O)C=C(NCCc1ccccc1)C3=O,IC50,[1],16 µM
C[C@]1(O)Cc2c(O)c3c(c(O)c2[C@@H](O)C1)C(=O)C=C(NCCc1ccc(Cl)cc1)C3=O,IC50,[1],10.1 µM
COc1cc(O)c2c(c1O)C(=O)c1cc(C)ccc1C2=O [AUSTROCORTIRUBIN],IC50,[1],> 50 µM
COc1cccc2c1C(=O)c1c(O)c3c(c(O)c1C2=O)C[C@@](O)(C(=O)CO)C[C@@H]3O[C@H]1C[C@H](N)[C@H](O)[C@H](C)O1 [DOXORUBICIN],Activity,[8],Active
same,Activity,[9],Active
same,Activity,[10],50%
same,IC50,[1],0.0199 µM
same,Activity,[11],inactive
same,Activity,[12],inactive
same,Activity,[13],50%
CC(=O)O[C@H]1C(=O)[C@@]2(C)[C@H]([C@H](OC(=O)c3ccccc3)[C@]3(O)C[C@H](OC(=O)[C@H](O)[C@@H](NC(=O)c4ccccc4)c4ccccc4)C(C)=C1C3(C)C)[C@]1(OC(C)=O)CO[C@@H]1C[C@@H]2O [PACLITAXEL],Activity,[14],Active
same,Activity,[15],Active
same,IC50,[1],0.0027 µM
same,fold change (FC),[16],3
